Several values for one entry are separate records, joined by “and”; a condition that tells them apart may be missing. Equal entries are not always repeated. HELM strings list units from the 5' end as sugar, base in round brackets, then linkage (d deoxyribose, r ribose, m 2'-O-methyl, p phosphodiester). Strings are as the collection lists them; they lack the last nucleoside at the 3' end of the tested compound. [moe] = 2'-O-(2-methoxyethyl) (MOE); [sp] = phosphorothioate linkage; [m5C] = 5-methylcytosine
Biological target: SMN2
Assay: mouse, dose not given
Details: ASO

Substance | 3 h FOB score
RNA1{[moe]([m5C])[sp].[moe](A)[sp].[moe]([m5C])p.[moe](T)p.[moe](T)p.[moe](T)p.[moe]([m5C])[sp].[moe](A)[sp].[moe](T)[sp].[moe](A)[sp].[moe](A)[sp].[moe](T)[sp].[moe](G)[sp].[moe]([m5C])[sp].[moe](T)[sp].[moe](G)[sp].[moe](G)}$$$$ (last 3' nucleoside missing) | 0 score 0-7
RNA1{[moe]([m5C])[sp].[moe](T)p.[moe](T)p.[moe](T)p.[moe]([m5C])[sp].[moe](A)[sp].[moe](T)[sp].[moe](A)[sp].[moe](A)[sp].[moe](T)[sp].[moe](G)p.[moe]([m5C])p.[moe](T)p.[moe](G)[sp].[moe](G)}$$$$ (last 3' nucleoside missing) | 0 score 0-7
RNA1{[moe]([m5C])[sp].[moe](A)[sp].[moe]([m5C])[sp].[moe](T)[sp].[moe](T)p.[moe](T)[sp].[moe]([m5C])[sp].[moe](A)[sp].[moe](T)[sp].[moe](A)[sp].[moe](A)[sp].[moe](T)[sp].[moe](G)[sp].[moe]([m5C])[sp].[moe](T)p.[moe](G)[sp].[moe](G)}$$$$ (last 3' nucleoside missing) | 0 score 0-7
RNA1{[moe](T)[sp].[moe]([m5C])[sp].[moe](A)[sp].[moe]([m5C])[sp].[moe](T)[sp].[moe](T)[sp].[moe](T)[sp].[moe]([m5C])[sp].[moe](A)[sp].[moe](T)p.[moe](A)[sp].[moe](A)[sp].[moe](T)[sp].[moe](G)[sp].[moe]([m5C])[sp].[moe](T)[sp].[moe](G)}$$$$ (last 3' nucleoside missing) | 3 score 0-7
RNA1{[moe](A)[sp].[moe](T)[sp].[moe](T)[sp].[moe]([m5C])[sp].[moe](A)[sp].[moe]([m5C])[sp].[moe](T)[sp].[moe](T)[sp].[moe](T)[sp].[moe]([m5C])[sp].[moe](A)[sp].[moe](T)[sp].[moe](A)[sp].[moe](A)[sp].[moe](T)[sp].[moe](G)p.[moe]([m5C])p.[moe](T)[sp].[moe](G)}$$$$ (last 3' nucleoside missing) | 3 score 0-7
RNA1{[moe]([m5C])[sp].[moe](A)[sp].[moe]([m5C])[sp].[moe](T)[sp].[moe](T)[sp].[moe](T)[sp].[moe]([m5C])[sp].[moe](A)[sp].[moe](T)[sp].[moe](A)[sp].[moe](A)p.[moe](T)[sp].[moe](G)[sp].[moe]([m5C])[sp].[moe](T)[sp].[moe](G)[sp].[moe](G)}$$$$ (last 3' nucleoside missing) | 0.25 score 0-7
RNA1{[moe]([m5C])[sp].[moe](T)[sp].[moe](T)p.[moe](T)[sp].[moe]([m5C])[sp].[moe](A)p.[moe](T)[sp].[moe](A)[sp].[moe](A)p.[moe](T)[sp].[moe](G)p.[moe]([m5C])[sp].[moe](T)p.[moe](G)[sp].[moe](G)}$$$$ (last 3' nucleoside missing) | 0 score 0-7
RNA1{[moe]([m5C])[sp].[moe](A)[sp].[moe]([m5C])[sp].[moe](T)[sp].[moe](T)[sp].[moe](T)[sp].[moe]([m5C])[sp].[moe](A)[sp].[moe](T)p.[moe](A)p.[moe](A)p.[moe](T)p.[moe](G)[sp].[moe]([m5C])[sp].[moe](T)[sp].[moe](G)[sp].[moe](G)}$$$$ (last 3' nucleoside missing) | 0 score 0-7
RNA1{[moe](T)[sp].[moe]([m5C])[sp].[moe](A)[sp].[moe]([m5C])[sp].[moe](T)[sp].[moe](T)[sp].[moe](T)[sp].[moe]([m5C])[sp].[moe](A)[sp].[moe](T)p.[moe](A)[sp].[moe](A)[sp].[moe](T)[sp].[moe](G)p.[moe]([m5C])[sp].[moe](T)[sp].[moe](G)}$$$$ (last 3' nucleoside missing) | 3.5 score 0-7
RNA1{[moe](T)[sp].[moe]([m5C])p.[moe](A)[sp].[moe]([m5C])[sp].[moe](T)[sp].[moe](T)[sp].[moe](T)[sp].[moe]([m5C])[sp].[moe](A)p.[moe](T)[sp].[moe](A)[sp].[moe](A)[sp].[moe](T)[sp].[moe](G)[sp].[moe]([m5C])[sp].[moe](T)[sp].[moe](G)}$$$$ (last 3' nucleoside missing) | 4 score 0-7
RNA1{[moe](T)[sp].[moe]([m5C])[sp].[moe](A)[sp].[moe]([m5C])[sp].[moe](T)[sp].[moe](T)[sp].[moe](T)[sp].[moe]([m5C])[sp].[moe](A)[sp].[moe](T)[sp].[moe](A)[sp].[moe](A)[sp].[moe](T)p.[moe](G)[sp].[moe]([m5C])p.[moe](T)[sp].[moe](G)[sp].[moe](G)}$$$$ (last 3' nucleoside missing) | 1 score 0-7 and 2 score 0-7 and 1.25 score 0-7 (2×)
RNA1{[moe](A)[sp].[moe]([m5C])[sp].[moe](T)p.[moe](T)[sp].[moe](T)[sp].[moe]([m5C])[sp].[moe](A)[sp].[moe](T)[sp].[moe](A)p.[moe](A)[sp].[moe](T)[sp].[moe](G)[sp].[moe]([m5C])[sp].[moe](T)p.[moe](G)[sp].[moe](G)}$$$$ (last 3' nucleoside missing) | 0 score 0-7
RNA1{[moe]([m5C])[sp].[moe](T)[sp].[moe](T)[sp].[moe](T)[sp].[moe]([m5C])p.[moe](A)p.[moe](T)p.[moe](A)p.[moe](A)[sp].[moe](T)[sp].[moe](G)[sp].[moe]([m5C])[sp].[moe](T)[sp].[moe](G)[sp].[moe](G)}$$$$ (last 3' nucleoside missing) | 1 score 0-7
RNA1{[moe](T)[sp].[moe]([m5C])p.[moe](A)p.[moe]([m5C])[sp].[moe](T)[sp].[moe](T)[sp].[moe](T)[sp].[moe]([m5C])[sp].[moe](A)[sp].[moe](T)[sp].[moe](A)[sp].[moe](A)[sp].[moe](T)[sp].[moe](G)[sp].[moe]([m5C])[sp].[moe](T)[sp].[moe](G)}$$$$ (last 3' nucleoside missing) | 4.75 score 0-7
RNA1{[moe](A)[sp].[moe]([m5C])p.[moe](T)p.[moe](T)[sp].[moe](T)[sp].[moe]([m5C])[sp].[moe](A)[sp].[moe](T)[sp].[moe](A)[sp].[moe](A)[sp].[moe](T)[sp].[moe](G)[sp].[moe]([m5C])p.[moe](T)p.[moe](G)[sp].[moe](G)}$$$$ (last 3' nucleoside missing) | 0 score 0-7
RNA1{[moe](A)[sp].[moe](T)p.[moe](T)[sp].[moe]([m5C])[sp].[moe](A)[sp].[moe]([m5C])[sp].[moe](T)[sp].[moe](T)[sp].[moe](T)[sp].[moe]([m5C])p.[moe](A)[sp].[moe](T)[sp].[moe](A)[sp].[moe](A)[sp].[moe](T)[sp].[moe](G)[sp].[moe]([m5C])[sp].[moe](T)[sp].[moe](G)}$$$$ (last 3' nucleoside missing) | 3.25 score 0-7
RNA1{[moe](T)[sp].[moe]([m5C])[sp].[moe](A)[sp].[moe]([m5C])p.[moe](T)[sp].[moe](T)[sp].[moe](T)[sp].[moe]([m5C])[sp].[moe](A)[sp].[moe](T)[sp].[moe](A)[sp].[moe](A)[sp].[moe](T)[sp].[moe](G)[sp].[moe]([m5C])[sp].[moe](T)[sp].[moe](G)}$$$$ (last 3' nucleoside missing) | 3.5 score 0-7
RNA1{[moe]([m5C])[sp].[moe](T)[sp].[moe](T)p.[moe](T)[sp].[moe]([m5C])p.[moe](A)[sp].[moe](T)p.[moe](A)[sp].[moe](A)p.[moe](T)[sp].[moe](G)p.[moe]([m5C])[sp].[moe](T)p.[moe](G)[sp].[moe](G)}$$$$ (last 3' nucleoside missing) | 0.25 score 0-7
RNA1{[moe](T)[sp].[moe](T)p.[moe]([m5C])[sp].[moe](A)[sp].[moe]([m5C])[sp].[moe](T)[sp].[moe](T)[sp].[moe](T)[sp].[moe]([m5C])p.[moe](A)[sp].[moe](T)[sp].[moe](A)[sp].[moe](A)[sp].[moe](T)[sp].[moe](G)[sp].[moe]([m5C])[sp].[moe](T)[sp].[moe](G)}$$$$ (last 3' nucleoside missing) | 2.5 score 0-7
RNA1{[moe](T)[sp].[moe]([m5C])[sp].[moe](A)[sp].[moe]([m5C])[sp].[moe](T)[sp].[moe](T)[sp].[moe](T)[sp].[moe]([m5C])[sp].[moe](A)[sp].[moe](T)[sp].[moe](A)[sp].[moe](A)[sp].[moe](T)[sp].[moe](G)p.[moe]([m5C])p.[moe](T)[sp].[moe](G)}$$$$ (last 3' nucleoside missing) | 3.5 score 0-7
RNA1{[moe]([m5C])[sp].[moe](T)[sp].[moe](T)p.[moe](T)p.[moe]([m5C])p.[moe](A)p.[moe](T)[sp].[moe](A)[sp].[moe](A)[sp].[moe](T)[sp].[moe](G)[sp].[moe]([m5C])[sp].[moe](T)[sp].[moe](G)[sp].[moe](G)}$$$$ (last 3' nucleoside missing) | 0 score 0-7
RNA1{[moe](T)[sp].[moe]([m5C])p.[moe](A)[sp].[moe]([m5C])[sp].[moe](T)[sp].[moe](T)[sp].[moe](T)[sp].[moe]([m5C])[sp].[moe](A)[sp].[moe](T)[sp].[moe](A)[sp].[moe](A)[sp].[moe](T)[sp].[moe](G)[sp].[moe]([m5C])[sp].[moe](T)[sp].[moe](G)}$$$$ (last 3' nucleoside missing) | 3.25 score 0-7
RNA1{[moe]([m5C])[sp].[moe](T)[sp].[moe](T)[sp].[moe](T)p.[moe]([m5C])[sp].[moe](A)[sp].[moe](T)[sp].[moe](A)p.[moe](A)[sp].[moe](T)[sp].[moe](G)[sp].[moe]([m5C])p.[moe](T)[sp].[moe](G)[sp].[moe](G)}$$$$ (last 3' nucleoside missing) | 0.75 score 0-7
RNA1{[moe]([m5C])[sp].[moe](A)p.[moe]([m5C])[sp].[moe](T)[sp].[moe](T)[sp].[moe](T)[sp].[moe]([m5C])[sp].[moe](A)[sp].[moe](T)[sp].[moe](A)[sp].[moe](A)[sp].[moe](T)p.[moe](G)[sp].[moe]([m5C])[sp].[moe](T)[sp].[moe](G)[sp].[moe](G)}$$$$ (last 3' nucleoside missing) | 0 score 0-7
RNA1{[moe](A)[sp].[moe]([m5C])[sp].[moe](T)[sp].[moe](T)[sp].[moe](T)[sp].[moe]([m5C])[sp].[moe](A)p.[moe](T)p.[moe](A)p.[moe](A)p.[moe](T)p.[moe](G)[sp].[moe]([m5C])[sp].[moe](T)[sp].[moe](G)[sp].[moe](G)}$$$$ (last 3' nucleoside missing) | 0 score 0-7
